In US11919901B2 (Syndax Pharmaceuticals, Inc., priority 2021, dated 2024):
pIC50: −log10 of the molar value.

Tested on: MV4-11 cells
Experiment: Cell proliferation assay MV4;11 (CellTiter-Glo, 72 hours)
Format: cell-based
Conditions: Homo sapiens; MV4;11 leukemia cell line, 72 hours; read-out: MV4; 11 IC50
Procedure, shortened: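 MV4-11 cells (MLL1-AF4 fusion) exposed 72 h at 37 °C to 8 compound concentrations, final 0.632–2000 nM. Viability by CellTiter-Glo luminescence as % of vehicle RLU; % max inhibition = 100 − viability at top concentration.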

Structure (SMILES) | pIC50
CCN(C(=O)c1cc(F)ccc1Oc1cncnc1N1CC2(CCN(C[C@@H]3CC[C@@H](NS(=O)(=O)N(C)CC)CO3)CC2)C1)C(C)C [Example 140, N-Ethyl-2-((4-(7-(((2S,5R)-5-((N-ethyl-N-methylsulfamoyl)amino)tetrahydro-2H-pyran-2-yl)methyl)-2,7-diazaspiro[3.5]nonan-2-yl)pyrimidin-5-yl)oxy)-5-fluoro-N-isopropylbenzamide] | > 7.00
CCNS(=O)(=O)N[C@@H]1CC[C@@H](CN2CCC3(CC2)CN(c2ncncc2Oc2ccc(F)cc2C(=O)N(CC)C(C)C)C3)OC1 [Example 141, N-Ethyl-2-((4-(7-(((2S,5R)-5-((N-ethylsulfamoyl)amino)tetrahydro-2H-pyran-2-yl)methyl)-2,7-diazaspiro[3.5]nonan-2-yl)pyrimidin-5-yl)oxy)-5-fluoro-N-isopropylbenzamide] | > 7.00
CCN(C(=O)c1cc(F)ccc1Oc1cncnc1N1CC2(CCN(C[C@@H]3CC[C@@H](NS(=O)(=O)NC4CC4)CO3)CC2)C1)C(C)C [Example 142, 2-((4-(7-(((2S,5R)-5-((N-Cyclopropylsulfamoyl)amino)tetrahydro-2H-pyran-2-yl)methyl)-2,7-diazaspiro[3.5]nonan-2-yl)pyrimidin-5-yl)oxy)-N-ethyl-5-fluoro-N-isopropylbenzamide] | > 7.00
CNS(=O)(=O)N[C@@H]1CC[C@@H](CN2CCC3(CC2)CN(c2ncncc2Oc2ccc(F)cc2C(=O)N(C(C)C)C(C)C)C3)OC1 [Example 143, 5-Fluoro-N,N-diisopropyl-2-((4-(7-(((2S,5R)-5-((N-methylsulfamoyl)amino)tetrahydro-2H-pyran-2-yl)methyl)-2,7-diazaspiro[3.5]nonan-2-yl)pyrimidin-5-yl)oxy)benzamide] | > 7.00
CCNS(=O)(=O)N[C@@H]1CC[C@@H](CN2CCC3(CC2)CN(c2ncncc2Oc2ccc(F)cc2C(=O)N(C(C)C)C(C)C)C3)OC1 [Example 144, 2-((4-(7-(((2S,5R)-5-((N-Ethylsulfamoyl)amino)tetrahydro-2H-pyran-2-yl)methyl)-2,7-diazaspiro[3.5]nonan-2-yl)pyrimidin-5-yl)oxy)-5-fluoro-N,N-diisopropylbenzamide] | > 7.00
CCNS(=O)(=O)N[C@@H]1CC[C@@H](CN2CCC3(CC2)CN(c2ncncc2Oc2ccc(F)cc2C(=O)N(C(C)C)C2CC2)C3)OC1 [Example 145, N-Cyclopropyl-2-((4-(7-(((2S,5R)-5-((N-ethylsulfamoyl)amino)tetrahydro-2H-pyran-2-yl)methyl)-2,7-diazaspiro[3.5]nonan-2-yl)pyrimidin-5-yl)oxy)-5-fluoro-N-isopropylbenzamide] | > 7.00
CCNS(=O)(=O)N[C@@H]1CC[C@@H](CN2CCC3(CC2)CN(c2ncncc2Oc2ccc(F)cc2C(=O)N(CC(F)F)C(C)C)C3)OC1 [Example 147, N-(2,2-Difluoroethyl)-2-((4-(7-(((2S,5R)-5-((N-ethylsulfamoyl)amino)tetrahydro-2H-pyran-2-yl)methyl)-2,7-diazaspiro[3.5]nonan-2-yl)pyrimidin-5-yl)oxy)-5-fluoro-N-isopropylbenzamide] | > 7.00
CC(C)N(CC(F)F)C(=O)c1cc(F)ccc1Oc1cncnc1N1CC2(CCN(C[C@@H]3CC[C@@H](NS(=O)(=O)NCC4CC4)CO3)CC2)C1 [Example 148, 2-((4-(7-(((2S,5R)-5-((N-(Cyclopropylmethyl)sulfamoyl)amino)tetrahydro-2H-pyran-2-yl)methyl)-2,7-diazaspiro[3.5]nonan-2-yl)pyrimidin-5-yl)oxy)-N-(2,2-difluoroethyl)-5-fluoro-N-isopropylbenzamide] | > 7.00
CC(C)N(CC(F)F)C(=O)c1cc(F)ccc1Oc1cncnc1N1CC2(CCN(C[C@@H]3CC[C@@H](NS(=O)(=O)NC4CC4)CO3)CC2)C1 [Example 149, 2-((4-(7-(((2S,5R)-5-((N-Cyclopropylsulfamoyl)amino)tetrahydro-2H-pyran-2-yl)methyl)-2,7-diazaspiro[3.5]nonan-2-yl)pyrimidin-5-yl)oxy)-N-(2,2-difluoroethyl)-5-fluoro-N-isopropylbenzamide] | > 7.00
CC(C)NS(=O)(=O)N[C@@H]1CC[C@@H](CN2CCC3(CC2)CN(c2ncncc2Oc2ccc(F)cc2C(=O)N(CC(F)F)C(C)C)C3)OC1 [Example 150, N-(2,2-Difluoroethyl)-5-fluoro-N-isopropyl-2-((4-(7-(((2S,5R)-5-((N-isopropylsulfamoyl)amino)tetrahydro-2H-pyran-2-yl)methyl)-2,7-diazaspiro[3.5]nonan-2-yl)pyrimidin-5-yl)oxy)benzamide] | > 7.00
CCCNS(=O)(=O)N[C@@H]1CC[C@@H](CN2CCC3(CC2)CN(c2ncncc2Oc2ccc(F)cc2C(=O)N(CC(F)F)C(C)C)C3)OC1 [Example 151, N-(2,2-Difluoroethyl)-5-fluoro-N-isopropyl-2-((4-(7-(((2S,5R)-5-((N-propylsulfamoyl)amino)tetrahydro-2H-pyran-2-yl)methyl)-2,7-diazaspiro[3.5]nonan-2-yl)pyrimidin-5-yl)oxy)benzamide] | > 7.00
CCS(=O)(=O)N[C@@H]1CC[C@@H](CN2CCC3(CC2)CN(c2ncncc2Oc2ccc(F)cc2C(=O)N(CC(F)(F)F)C(C)C)C3)OC1 [Example 152, 2-((4-(7-(((2S,5R)-5-(Ethylsulfonamido)tetrahydro-2H-pyran-2-yl)methyl)-2,7-diazaspiro[3.5]nonan-2-yl)pyrimidin-5-yl)oxy)-5-fluoro-N-isopropyl-N-(2,2,2-trifluoroethyl)benzamide] | > 7.00
CCNS(=O)(=O)N[C@@H]1CC[C@@H](CN2CCC3(CC2)CN(c2ncncc2Oc2ccc(F)cc2C(=O)N(CC(F)(F)F)C(C)C)C3)OC1 [Example 153, 2-((4-(7-(((2S,5R)-5-((N-Ethylsulfamoyl)amino)tetrahydro-2H-pyran-2-yl)methyl)-2,7-diazaspiro[3.5]nonan-2-yl)pyrimidin-5-yl)oxy)-5-fluoro-N-isopropyl-N-(2,2,2-trifluoroethyl)benzamide] | > 7.00
CNS(=O)(=O)N[C@@H]1CC[C@@H](CN2CCC3(CC2)CN(c2ncncc2Oc2ccc(F)cc2C(=O)N(C(C)C)C2CC(F)(F)C2)C3)OC1 [Example 154, N-(3,3-Difluorocyclobutyl)-5-fluoro-N-isopropyl-2-((4-(7-(((2S,5R)-5-((N-methylsulfamoyl)amino)tetrahydro-2H-pyran-2-yl)methyl)-2,7-diazaspiro[3.5]nonan-2-yl)pyrimidin-5-yl)oxy)benzamide] | > 7.00
CCNS(=O)(=O)N[C@@H]1CC[C@@H](CN2CCC3(CC2)CN(c2ncncc2Oc2ccc(F)cc2C(=O)N(C(C)C)C2CC(F)(F)C2)C3)OC1 [Example 155, N-(3,3-Difluorocyclobutyl)-2-((4-(7-(((2S,5R)-5-((N-ethylsulfamoyl)amino)tetrahydro-2H-pyran-2-yl)methyl)-2,7-diazaspiro[3.5]nonan-2-yl)pyrimidin-5-yl)oxy)-5-fluoro-N-isopropylbenzamide] | > 7.00
C[C@@H]1COC[C@@H](C)N1C(=O)c1cc(F)ccc1Oc1cncnc1N1CC2(CCN(C[C@@H]3CC[C@@H](NS(=O)(=O)NCC(F)(F)F)CO3)CC2)C1 [Example 157, {[(3R,6S)-6-{[2-(5-{2-[(3R,5R)-3,5-Dimethylmorpholine-4-carbonyl]-4-fluorophenoxy}pyrimidin-4-yl)-2,7-diazaspiro[3.5]nonan-7-yl]methyl}oxan-3-yl]sulfamoyl}(2,2,2-trifluoroethyl)amine] | > 7.00
